In ChEMBL document CHEMBL1138545, “Synthesis and antimicrobial activities of some new triazolothiadiazoles bearing 4-methylthiobenzyl moiety” (2009):
Values after ≈ are worked out from the molar mass of the structure shown.

Experiments:
Assay type in all cases: functional
Aspergillus fumigatus = test: Antifungal activity against Aspergillus fumigatus NICM 902 after 3 to days by serial plate dilution method; conditions: for MIC: Aspergillus fumigatus, NICM 902
[1] = test system: Trichophyton mentagrophytes; test: Antifungal activity against Trichophyton mentagrophytes after 3 to days by serial plate dilution method; conditions: for MIC: Trichophyton mentagrophytes
Candida albicans = test: Antifungal activity against Candida albicans NICM 300 after 3 to days by serial plate dilution method; conditions: for MIC: Candida albicans, NICM 300
Klebsiella pneumoniae = test: Antibacterial activity against Klebsiella pneumoniae after 24 hrs by the disk diffusion method; conditions: for MIC: Klebsiella pneumoniae, 24 h
Staphylococcus aureus = test: Antibacterial activity against Staphylococcus aureus ATTC […] after 24 hrs by the disk diffusion method; conditions: for MIC: Staphylococcus aureus, 24 h
Aspergillus flavus = test: Antifungal activity against Aspergillus flavus NICM 524 after 3 to days by serial plate dilution method; conditions: for MIC: Aspergillus flavus, NICM 524
Escherichia coli = test: Antibacterial activity against Escherichia coli ATTC 25922 after 24 hrs by the disk diffusion method; conditions: for MIC: Escherichia coli, ATTC 25922, 24 h
Pseudomonas aeruginosa = test: Antibacterial activity against Pseudomonas aeruginosa ATTC 27853 after 24 hrs by the disk diffusion method; conditions: for MIC: Pseudomonas aeruginosa, ATTC 27853, 24 h

| Structure (SMILES) | diameter of the inhibition zone (DIZ) (Aspergillus fumigatus) | MIC (Aspergillus fumigatus) | diameter of the inhibition zone (DIZ) [1] | MIC [1] | diameter of the inhibition zone (DIZ) (Candida albicans) | MIC (Candida albicans) | inhibition zone (IZ) (Klebsiella pneumoniae) | MIC (Klebsiella pneumoniae) | inhibition zone (IZ) (Staphylococcus aureus) | MIC (Staphylococcus aureus) | diameter of the inhibition zone (DIZ) (Aspergillus flavus) | MIC (Aspergillus flavus) | inhibition zone (IZ) (Escherichia coli) | MIC (Escherichia coli) | inhibition zone (IZ) (Pseudomonas aeruginosa) | MIC (Pseudomonas aeruginosa) |
| --- | --- | --- | --- | --- | --- | --- | --- | --- | --- | --- | --- | --- | --- | --- | --- | --- |
| CSc1ccc(Cc2nnc3sc(-c4ccc(F)cc4)nn23)cc1 | 19 mm | 12.5 µg/mL (≈ 35.1 µM) | 17 mm | 12.5 µg/mL (≈ 35.1 µM) | 10 mm | 25 µg/mL (≈ 70.1 µM) | 25 mm | 6 µg/mL (≈ 16.8 µM) | 18 mm | 12.5 µg/mL (≈ 35.1 µM) | 16 mm | 12.5 µg/mL (≈ 35.1 µM) | 19 mm | 12.5 µg/mL (≈ 35.1 µM) | 17 mm | 12.5 µg/mL (≈ 35.1 µM) |
| COc1ccc(-c2ccc(-c3nn4c(Cc5ccc(SC)cc5)nnc4s3)o2)c([N+](=O)[O-])c1 | 19 mm | 12.5 µg/mL (≈ 26.1 µM) | 15 mm | 25 µg/mL (≈ 52.1 µM) | 17 mm | 25 µg/mL (≈ 52.1 µM) | 21 mm | 6 µg/mL (≈ 12.5 µM) | 12 mm | 25 µg/mL (≈ 52.1 µM) | 12 mm | 25 µg/mL (≈ 52.1 µM) | 13 mm | 25 µg/mL (≈ 52.1 µM) | 12 mm | 25 µg/mL (≈ 52.1 µM) |
| CSc1ccc(Cc2nnc3sc(-c4ccc(-c5ccc(C)cc5)o4)nn23)cc1 | 21 mm | 12.5 µg/mL (≈ 29.9 µM) | 17 mm | 12.5 µg/mL (≈ 29.9 µM) | 14 mm | 25 µg/mL (≈ 59.7 µM) | 23 mm | 6 µg/mL (≈ 14.3 µM) | 18 mm | 12.5 µg/mL (≈ 29.9 µM) | 11 mm | 25 µg/mL (≈ 59.7 µM) | 18 mm | 6 µg/mL (≈ 14.3 µM) | 18 mm | 6 µg/mL (≈ 14.3 µM) |
| CSc1ccc(Cc2nn3c(Cc4ccc(SC)cc4)nnc3s2)cc1 | 22 mm | 6 µg/mL (≈ 15.1 µM) | 20 mm | 6 µg/mL (≈ 15.1 µM) | 19 mm | 6 µg/mL (≈ 15.1 µM) | 13 mm | 25 µg/mL (≈ 62.7 µM) | 18 mm | 12.5 µg/mL (≈ 31.4 µM) | 17 mm | 25 µg/mL (≈ 62.7 µM) | 16 mm | 12.5 µg/mL (≈ 31.4 µM) | 18 mm | 6 µg/mL (≈ 15.1 µM) |
| CSc1ccc(Cc2nnc3sc(-c4ccc(-c5ccc(Br)cc5)o4)nn23)cc1 | 20 mm | 6 µg/mL (≈ 12.4 µM) | 20 mm | 6 µg/mL (≈ 12.4 µM) | 18 mm | 6 µg/mL (≈ 12.4 µM) | 15 mm | 25 µg/mL (≈ 51.7 µM) | 12 mm | 25 µg/mL (≈ 51.7 µM) | 17 mm | 12.5 µg/mL (≈ 25.9 µM) | 11 mm | 25 µg/mL (≈ 51.7 µM) | 11 mm | 25 µg/mL (≈ 51.7 µM) |
| CSc1ccc(Cc2nnc3sc(-c4ccc(-c5cc(Cl)c(Cl)cc5Cl)o4)nn23)cc1 | 12 mm | 25 µg/mL (≈ 49.2 µM) | 17 mm | 25 µg/mL (≈ 49.2 µM) | 12 mm | 25 µg/mL (≈ 49.2 µM) | 10 mm | 25 µg/mL (≈ 49.2 µM) | 13 mm | 25 µg/mL (≈ 49.2 µM) | 17 mm | 12.5 µg/mL (≈ 24.6 µM) | 12 mm | 25 µg/mL (≈ 49.2 µM) | 10 mm | 25 µg/mL (≈ 49.2 µM) |
| Cc1cc(C2CCCCC2)n(O)c(=O)c1.NCCO [CICLOPIROX OLAMINE] | 22 mm | 6 µg/mL | 20 mm | 6 µg/mL | 20 mm | 6 µg/mL |  |  |  |  | 18 mm | 12.5 µg/mL |  |  |  |  |
| CSc1ccc(Cc2nnc3sc(-c4ccc(-c5ccc([N+](=O)[O-])cc5)o4)nn23)cc1 | 14 mm | 25 µg/mL (≈ 55.6 µM) | 11 mm | 25 µg/mL (≈ 55.6 µM) | 17 mm | 12.5 µg/mL (≈ 27.8 µM) | 20 mm | 12.5 µg/mL (≈ 27.8 µM) | 16 mm | 25 µg/mL (≈ 55.6 µM) | 11 mm | 25 µg/mL (≈ 55.6 µM) | 17 mm | 25 µg/mL (≈ 55.6 µM) | 10 mm | 25 µg/mL (≈ 55.6 µM) |
| COc1ccc(-c2ccc(-c3nn4c(Cc5ccc(SC)cc5)nnc4s3)o2)cc1 | 22 mm | 6 µg/mL (≈ 13.8 µM) | 18 mm | 6 µg/mL (≈ 13.8 µM) | 10 mm | 25 µg/mL (≈ 57.5 µM) | 18 mm | 12.5 µg/mL (≈ 28.8 µM) | 14 mm | 25 µg/mL (≈ 57.5 µM) | 18 mm | 12.5 µg/mL (≈ 28.8 µM) | 16 mm | 12.5 µg/mL (≈ 28.8 µM) | 17 mm | 12.5 µg/mL (≈ 28.8 µM) |
| CSc1ccc(Cc2nnc3sc(Cc4ccccc4)nn23)cc1 | 13 mm | 25 µg/mL (≈ 70.9 µM) | 12 mm | 25 µg/mL (≈ 70.9 µM) | 17 mm | 6 µg/mL (≈ 17 µM) | 14 mm | 25 µg/mL (≈ 70.9 µM) | 11 mm | 25 µg/mL (≈ 70.9 µM) | 10 mm | 25 µg/mL (≈ 70.9 µM) | 11 mm | 25 µg/mL (≈ 70.9 µM) | 15 mm | 25 µg/mL (≈ 70.9 µM) |
| CSc1ccc(Cc2nnc3sc(-c4ccc(O)cc4)nn23)cc1 | 22 mm | 6 µg/mL (≈ 16.9 µM) | 18 mm | 6 µg/mL (≈ 16.9 µM) | 20 mm | 6 µg/mL (≈ 16.9 µM) | 17 mm | 25 µg/mL (≈ 70.5 µM) | 12 mm | 25 µg/mL (≈ 70.5 µM) | 18 mm | 12.5 µg/mL (≈ 35.3 µM) | 10 mm | 25 µg/mL (≈ 70.5 µM) | 12 mm | 25 µg/mL (≈ 70.5 µM) |
| CSc1ccc(Cc2nnc3sc(-c4ccc(Cl)c(Cl)c4Cl)nn23)cc1 | 13 mm | 25 µg/mL (≈ 56.6 µM) | 17 mm | 25 µg/mL (≈ 56.6 µM) | 10 mm | 25 µg/mL (≈ 56.6 µM) | 24 mm | 6 µg/mL (≈ 13.6 µM) | 18 mm | 12.5 µg/mL (≈ 28.3 µM) | 15 mm | 25 µg/mL (≈ 56.6 µM) | 19 mm | 12.5 µg/mL (≈ 28.3 µM) | 17 mm | 12.5 µg/mL (≈ 28.3 µM) |
| CSc1ccc(Cc2nnc3sc(-c4ccc([N+](=O)[O-])cc4Cl)nn23)cc1 | 22 mm | 6 µg/mL (≈ 14.4 µM) | 19 mm | 6 µg/mL (≈ 14.4 µM) | 20 mm | 6 µg/mL (≈ 14.4 µM) | 23 mm | 6 µg/mL (≈ 14.4 µM) | 19 mm | 12.5 µg/mL (≈ 29.9 µM) | 17 mm | 12.5 µg/mL (≈ 29.9 µM) | 18 mm | 12.5 µg/mL (≈ 29.9 µM) | 17 mm | 12.5 µg/mL (≈ 29.9 µM) |
| CSc1ccc(Cc2nnc3sc(-c4ccc(-c5ccc(Cl)cc5)o4)nn23)cc1 | 17 mm | 12.5 µg/mL (≈ 28.5 µM) | 16 mm | 25 µg/mL (≈ 57 µM) | 12 mm | 25 µg/mL (≈ 57 µM) | 22 mm | 12.5 µg/mL (≈ 28.5 µM) | 18 mm | 12.5 µg/mL (≈ 28.5 µM) | 10 mm | 25 µg/mL (≈ 57 µM) | 20 mm | 6 µg/mL (≈ 13.7 µM) | 18 mm | 6 µg/mL (≈ 13.7 µM) |
| CSc1ccc(Cc2nnc3sc(-c4cc(Cl)ccc4Cl)nn23)cc1 | 11 mm | 25 µg/mL (≈ 61.4 µM) | 13 mm | 25 µg/mL (≈ 61.4 µM) | 15 mm | 25 µg/mL (≈ 61.4 µM) | 13 mm | 25 µg/mL (≈ 61.4 µM) | 15 mm | 25 µg/mL (≈ 61.4 µM) | 11 mm | 25 µg/mL (≈ 61.4 µM) | 12 mm | 25 µg/mL (≈ 61.4 µM) | 10 mm | 25 µg/mL (≈ 61.4 µM) |
| CSc1ccc(Cc2nnc3sc(-c4ccc(-c5ccc(Cl)cc5[N+](=O)[O-])o4)nn23)cc1 | 22 mm | 6 µg/mL (≈ 12.4 µM) | 17 mm | 6 µg/mL (≈ 12.4 µM) | 18 mm | 12.5 µg/mL (≈ 25.8 µM) | 23 mm | 6 µg/mL (≈ 12.4 µM) | 18 mm | 12.5 µg/mL (≈ 25.8 µM) | 18 mm | 12.5 µg/mL (≈ 25.8 µM) | 19 mm | 6 µg/mL (≈ 12.4 µM) | 18 mm | 6 µg/mL (≈ 12.4 µM) |
| CSc1ccc(Cc2nnc3sc(-c4ccc([N+](=O)[O-])cc4)nn23)cc1 | 15 mm | 25 µg/mL (≈ 65.2 µM) | 11 mm | 25 µg/mL (≈ 65.2 µM) | 14 mm | 25 µg/mL (≈ 65.2 µM) | 13 mm | 12.5 µg/mL (≈ 32.6 µM) | 16 mm | 12.5 µg/mL (≈ 32.6 µM) | 11 mm | 25 µg/mL (≈ 65.2 µM) | 17 mm | 12.5 µg/mL (≈ 32.6 µM) | 18 mm | 6 µg/mL (≈ 15.6 µM) |
